In patent US10561723B2, “Treatment and prevention of anal conditions” (priority 2015, dated 2020):
Entries after “also recorded” stand apart in the source; their conditions may differ.

Assays:
anal dysplasia [1] = test: Anal pap smear cytology, case report Example 3; assay type: in vivo, human; details: Ex.3, imiquimod + HPV-9 vaccine
From the text: (§1) Case Report Summary: The patient is a HIV positive gay with chronic HIV infection who presents with recurrent high grade squamous intraepithelial lesion (HSIL) post multiple ablative treatments. The patient received treatment for their HIV disease with a combination of anti-retroviral medicatons (abacavir, etravirine, prezista and ritonavir which was later modified to dolutegravir, etravirine and prezista and ritonavir). Over the past two years the CD4 count has been in the range of 250-350 and there has been low level HIV viremia (40-400 copies range per ml of plasma) due to intermittent adherence. The patient has other co-morbid conditions including hepatitis C, hypertension, hyperlipidemia, osteoporosis, and high risk sexual activity.
(§2) May 29, 2015 Discussed immunotherapy for recurrent HSIL after failing ablative therapies described above. Patient received HPV-9 vaccine intramuscular in the deltoid. This is the start of the immunotherapy protocol. Patient starts the intra-anal application of 5% imiquimod cream three times per week.
(§3) Jan. 15, 2016 4th perianal HPV-9 vaccination given. Discontinue 5% intra-anal imiquimod cream and begin 5% 5-fluorouracil cream intra-anally three times a week for 20 weeks.

[2] = tested on: anal intraepithelial neoplasia (AIN); test: HRA with biopsies, case report Example 3; assay type: in vivo, human; details: Ex.3; for anal dysplasia, overall outcome of immunotherapy protocol: 5% imiquimod cream with perianal HPV-9 immunizations followed by 4-5 months of 2-3 times weekly intra-anal 5% 5-fluorouracil cream
From the text: as §1, §2, §3

[3] = Side effects, case report Example 3; assay type: in vivo, human; details: Ex.3; for most notable side effects of the immunotherapy protocol: 5% imiquimod cream and 5% 5-fluorouracil cream intra-anally, resolved on brief cessation or reduced frequency
From the text: Aug. 7, 2015 HRA done and biopsies taken. […] Pt told to wait until irritation has abated before continuing the imiquimod cream treatments. First perianal HPV-9 vaccination given.
The above case report represents a case of recurrent anal HSIL status post multiple ablative procedures. The patient has HIV infection and thus is moderately immunosuppressed. In spite of the immunosuppression, the patient was able to clear not only HSIL (AIN 2 and AIN 3) but also was able to clear LSIL (AIN 1). The presence of a normal anal pap smear result on Jun. […] 20, 2016. […] It is presumed that the use of the 5-fluorouracil cream treated nests of dysplastic cells that if not treated would likely lead to recurrent LSIL or HSIL. Thus, the immunotherapy protocol may be useful for patients in a salvage situation who have failed multiple ablative procedures with recurrent HSIL in the setting of immunosuppression due to HIV infection. […] This might be due to the immunosuppression secondary to chronic HIV infection.

high risk (HR) HPV DNA = test: Anal pap high risk HPV DNA screen, case report Example 1; assay type: in vivo, human
Protocol: (§4) Case Report Summary: A HIV negative patient with multifocal AIN 2 and AIN 3 in the anal transitional zone was enrolled. The patient was treated with intra-anal imiquimod followed by an intramuscular dose of HPV4 followed by four perianal HPV4 immunizations, each separated by 3-4 weeks. The patient was screened for high risk (HR) HPV DNA on a weekly basis and had multiple biopsies to identify possible dysplasia.
(§5) Detailed Data and Results: A HIV negative person presented for routine health care. […] Patient was referred for HRA. […] 5, 2014. Biopsies indicated the following: distal AIN 1 at three o'clock; AIN 1 at 4 o'clock; AIN 2 at 7 o'clock; AIN 2 at 10 o'clock; and AIN 2 at 12 o'clock. FIGS. 1B and 1C are posterior and anterior views, respectively, showing circumferential staining of the anal canal. Patient received the first immunization with qHPV vaccine IM in the deltoid on Nov. 13, 2014. On Dec. 1, 2014, the patient received the first perianal qHPV vaccine. They started to use 5% imiquimod on Dec. 1, 2014 with one packet applied intra-anally three times weekly.

anal dysplasia [4] = test: Anal pap smear cytology, case report Example 1; assay type: in vivo, human
Protocol: as §4, §5

[5] = tested on: anal intraepithelial neoplasia (AIN); test: High resolution anoscopy (HRA) with biopsies, case report Example 1; assay type: in vivo, human
Protocol: as §4, §5

[6] = Tolerability, case report Example 1; assay type: in vivo, human; details: Ex.1; intra-anal 5% imiquimod 3x/wk; resolved, restarted after several days to one week
From the text: On Dec. 29, 2014 the patient was again examined and had ASCUS anal pap smear. The anal pap was negative for high risk HPV types. […] The erythema and discomfort resolved and imiquimod was restarted after a period of several days to one week. On Jan. 27, 2015 the anal pap smear was normal and negative for high risk HPV DNA. They received the third perianal qHPV vaccine.

[7] = tested on: HPV other high risk types; test: Anal HPV typing/assay, case report Example 3; assay type: in vivo, human
From the text: as §1, §2, §3

HPV DNA / AIN = details: cited from earlier work
hepatitis C, genotype 1 = test: Hepatitis C treatment of the Example 3 patient; assay type: in vivo, human; details: Ex.3 patient; 12 weeks of treatment; 12 weeks post completion of therapy
[8] = then intra-anal 5% 5-fluorouracil cream from Jan. 15, 2016, Jun. 20, 2016
[9] = imiquimod + HPV-9 vaccine, then intra-anal 5% 5-fluorouracil cream from Jan. 15, 2016, Apr. 21, 2016
[10] = imiquimod + HPV-9 vaccine, then intra-anal 5% 5-fluorouracil cream from Jan. 15, 2016, Jun. 20, 2016
[11] = Ex.1 HIV negative male with AIN 2/3, intra-anal 5% imiquimod 3x/wk + qHPV (HPV4) vaccine (IM, then 4 perianal)
[12] = Ex.1, imiquimod + qHPV vaccine, Dec. 11, 2014
[13] = Ex.1, imiquimod + qHPV vaccine, Dec. 29, 2014
[14] = Ex.1, imiquimod + qHPV vaccine, Feb. 10, 2015
[15] = Ex.1, imiquimod + qHPV vaccine, Feb. 25, 2015
[16] = Ex.1, imiquimod + qHPV vaccine, Jan. 27, 2015
[17] = Ex.1, imiquimod + qHPV vaccine, Pathology Report I
[18] = Ex.1, imiquimod + qHPV vaccine, Pathology Report II (Feb. 25, 2015)

Compound: O=c1[nH]cc(F)c(=O)[nH]1 [5-fluorouracil]
- anal pap cytology (anal dysplasia [1]; [8]): negative for intraepithelial lesion and malignancy
- anal dysplasia, overall outcome of immunotherapy protocol [2]: clearance of anal dysplasia (AIN 1, AIN 2 and AIN 3)
- HRA biopsies histology [2, 9]: 3 o'clock—AIN 1; 5 o'clock—AIN 1; 6 o'clock—AIN 1; 9 o'clock—AIN 1; 10 o'clock—benign; 12 o'clock—benign
- HRA biopsies histology [2, 10]: 3 o'clock—benign; 9 o'clock—benign anal mucosa; 10 o'clock—benign anal mucosa; 12 o'clock—benign anal mucosa
- most notable side effects of the immunotherapy protocol [3]: anal and perianal irritation

Compound: CC(C)Cn1cnc2c(N)nc3ccccc3c21 [imiquimod, 3-(2-Methylpropyl)-3,5,8-triazatricyclo[7.4.0.0^2,6]trideca-1(9),2(6),4,7,10,12-hexaen-7-amine]
- HR HPV DNA, overall outcome (high risk (HR) HPV DNA; [11]): loss of HR HPV DNA including HPV16
- anal pap high risk HPV DNA (high risk (HR) HPV DNA; [12]): negative
- anal pap high risk HPV types (high risk (HR) HPV DNA; [13]): negative
- anal pap high risk HPV DNA (high risk (HR) HPV DNA; [14]): negative
- HPV DNA (high risk (HR) HPV DNA; [15]): negative
- anal pap high risk HPV DNA (high risk (HR) HPV DNA; [16]): negative
- anal Pap smear, overall outcome (anal dysplasia [4]; [11]): normalization of the anal Pap smear from ASCUS
- anal pap smear cytology (anal dysplasia [4]; [13]): ASCUS
- anal pap cytology (anal dysplasia [4]; Ex.1, imiquimod + qHPV vaccine, Feb. 10, 2015 (Pathology Report I concurrent pap)): normal; also recorded: negative for intraepithelial lesion and malignancy
- anal pap smear cytology (anal dysplasia [4]; Ex.1, imiquimod + qHPV vaccine, Feb. 25, 2015 (Pathology Report II concurrent pap)): normal; also recorded: negative for intraepithelial lesion and malignancy
- anal pap smear cytology (anal dysplasia [4]; [16]): normal
- anal dysplasia, overall outcome [5, 11]: resolution of anal dysplasia
- HRA biopsies histology [5, 12]: AIN 1 at 4 o'clock; AIN 2 at 7 o'clock and AIN 3 at 12 o'clock
- HRA biopsies histology [5, 13]: AIN 2 at 7 o'clock and focal AIN 1 at 12 o'clock
- HRA biopsies histology [5, 14]: normal histology at 4, AIN 1 at 10 and small focal AIN 2 at 12 o'clock
- anoscopist's observation of anal canal epithelium [5, 15]: remodeling of the anal canal epithelium, replacing thickened dysplastic epithelium with thin, translucent epithelium, which is normal
- biopsies at 2, 6, 10 and 12 o'clock [5, 16]: all normal without evidence of dysplasia
- biopsy diagnosis, anal canal 4 o'clock (transition zone) [5, 17]: no evidence of dysplasia or malignancy
- biopsy diagnosis, anal canal 10 o'clock (transition zone) [5, 17]: AIN 1
- biopsy diagnosis, anal canal 12 o'clock (transition zone) [5, 17]: AIN 2
- biopsy diagnosis, anal canal 5 o'clock [5, 18]: no evidence of dysplasia or malignancy
- biopsy diagnosis, anal canal 7 o'clock [5, 18]: no evidence of dysplasia or malignancy
- biopsy diagnosis, anal canal 10 o'clock [5, 18]: no evidence of dysplasia or malignancy
- biopsy diagnosis, anal canal 12 o'clock [5, 18]: no evidence of dysplasia or malignancy
- local adverse effect leading to interruptions of imiquimod cream [6]: increased perianal erythema
- HPV typing ([7]; Ex.3 HIV positive male, recurrent HSIL after ablative treatments, intra-anal 5% imiquimod 3x/wk + HPV-9 vaccine IM (May 29, 2015), Aug. 7, 2015): positive for other high risk types
- HPV assay ([7]; Ex.3, imiquimod + HPV-9 vaccine (IM, 1 perianal), Sep. 30, 2015): continued presence of other HPV high risk types
- anal pap cytology (anal dysplasia [1]; [8]): negative for intraepithelial lesion and malignancy
- anal pap cytology (anal dysplasia [1]; Oct. 28, 2015): atypical cells of undetermined significance (ASCUS)
- anal pap cytology (anal dysplasia [1]; Sep. 30, 2015): LSIL
- anal dysplasia, overall outcome of immunotherapy protocol [2]: clearance of anal dysplasia (AIN 1, AIN 2 and AIN 3)
- HRA biopsies histology ([2]; imiquimod + HPV-9 vaccine IM, Aug. 7, 2015): 3 o'clock—AIN 2; 4 o'clock—AIN 1; 9 o'clock—AIN 1; 10 o'clock distal—AIN 1; 12 o'clock AIN 2
- HRA biopsies histology [2, 9]: 3 o'clock—AIN 1; 5 o'clock—AIN 1; 6 o'clock—AIN 1; 9 o'clock—AIN 1; 10 o'clock—benign; 12 o'clock—benign
- HRA biopsies histology [2, 10]: 3 o'clock—benign; 9 o'clock—benign anal mucosa; 10 o'clock—benign anal mucosa; 12 o'clock—benign anal mucosa
- HRA biopsies histology ([2]; imiquimod + HPV-9 vaccine, Dec. 9, 2015): 3 o'clock AIN—1; 6 o'clock—AIN 1; 9 o'clock—benign
- HRA biopsies histology ([2]; imiquimod + HPV-9 vaccine, Oct. 28, 2015): 1 o'clock—AIN 1; 4 o'clock—benign; 9 o'clock—AIN 1; 12 o'clock—AIN 1
- HRA biopsies histology ([2]; imiquimod + HPV-9 vaccine, Sep. 30, 2015): 3 o'clock—AIN 1; 4 o'clock—AIN 1; 9 o'clock—AIN 1; 10 o'clock—AIN 1; 12 o'clock—benign
- most notable side effects of the immunotherapy protocol [3]: anal and perianal irritation
- patient complaints due to imiquimod cream treatments ([3]; intra-anal 5% imiquimod cream 3x/wk, Aug. 7, 2015): anal irritation and spotting of blood per anus
- developed recurrent AIN (HPV DNA / AIN; after intra-anal 5% imiquimod cream, mean follow up approximately 30 months, often HPV types differing from start): 5 patient
- HPV DNA viral loads (HPV DNA / AIN; intra-anal 5% imiquimod cream three times weekly for 16 weeks, 19 HIV positive men with AIN): decreased

Compound: CCN(CC)CC(=O)Nc1c(C)cccc1C [lidocaine]
- burning at the site of HPV vaccination ([3]; local infusion of 1% lidocaine prior to perianal HPV-9 vaccinations): much less burning

Compound: sofosbuvir/ledipasvir
- virologic response (hepatitis C, genotype 1): sustained virologic response
